The assay addresses T1, HDAC6 (Homo sapiens, UniProt Q9UBN7).
T1 sequence (Q9UBN7 1-1215): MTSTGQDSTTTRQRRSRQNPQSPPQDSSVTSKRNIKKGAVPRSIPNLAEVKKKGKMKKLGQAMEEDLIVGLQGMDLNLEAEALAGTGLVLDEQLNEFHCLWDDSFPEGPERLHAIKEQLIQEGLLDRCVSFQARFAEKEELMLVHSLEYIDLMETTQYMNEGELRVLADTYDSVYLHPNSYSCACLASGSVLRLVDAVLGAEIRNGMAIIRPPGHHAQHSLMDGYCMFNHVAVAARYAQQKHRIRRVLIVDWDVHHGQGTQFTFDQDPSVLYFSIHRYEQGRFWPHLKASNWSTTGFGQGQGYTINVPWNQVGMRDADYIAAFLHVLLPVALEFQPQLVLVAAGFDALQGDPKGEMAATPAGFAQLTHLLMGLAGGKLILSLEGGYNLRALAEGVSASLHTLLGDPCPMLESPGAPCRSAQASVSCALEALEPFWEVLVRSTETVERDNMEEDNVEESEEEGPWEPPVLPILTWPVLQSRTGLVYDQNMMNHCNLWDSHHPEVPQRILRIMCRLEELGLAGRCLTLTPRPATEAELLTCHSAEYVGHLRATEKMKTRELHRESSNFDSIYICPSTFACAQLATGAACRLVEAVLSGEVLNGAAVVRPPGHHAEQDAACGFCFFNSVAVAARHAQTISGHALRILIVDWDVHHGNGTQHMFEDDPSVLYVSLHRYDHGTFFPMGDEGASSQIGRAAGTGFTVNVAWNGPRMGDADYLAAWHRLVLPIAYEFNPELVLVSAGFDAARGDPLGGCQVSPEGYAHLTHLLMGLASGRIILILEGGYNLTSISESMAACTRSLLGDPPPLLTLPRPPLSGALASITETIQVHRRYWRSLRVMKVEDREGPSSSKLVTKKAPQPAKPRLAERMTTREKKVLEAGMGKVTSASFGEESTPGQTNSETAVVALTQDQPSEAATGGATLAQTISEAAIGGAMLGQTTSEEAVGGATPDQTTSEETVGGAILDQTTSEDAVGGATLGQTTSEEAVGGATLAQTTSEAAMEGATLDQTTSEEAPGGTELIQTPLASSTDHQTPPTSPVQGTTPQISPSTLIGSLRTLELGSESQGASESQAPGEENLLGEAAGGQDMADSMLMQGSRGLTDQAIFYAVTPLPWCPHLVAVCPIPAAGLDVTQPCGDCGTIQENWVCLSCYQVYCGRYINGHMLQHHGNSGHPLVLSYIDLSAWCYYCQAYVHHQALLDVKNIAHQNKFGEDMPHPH
Nature of the assay: Human HDAC enzyme inhibitor Fluor-de-Lys assay, HDAC6. Type of assay: biochemical. The settings on record: 1.3 nM enzyme, 2.5 μM substrate BML-KI104, 3 h pre-incubation, 60 min reaction; read-out: HDAC6_IC50. The text has this:
Recombinant human HDAC8 (catalog number BML-SE145-0100) and HDAC10 (catalog number BML-SE559-0050) enzymes, HDAC substrates BML-KI104 and BML-KI178, and HDAC developer solutions BML-KI105 and BML-KI176 were purchased from Enzo Life Sciences (Farmingdale, NY). Recombinant human HDAC5 and HDAC11 were purchased from BPS Bioscience (San Diego, CA)(catalog numbers 50045 and 50021). Substrate Boc-Lys(TFA)-AMC was obtained from Bachem (Bupendorf, Switzerland) (catalog number 1-1985). HDAC inhibitor suberoylanilide hydroxamic acid (SAHA) was obtained from Indofine (Hillsborough Township, NJ) and trichostatin A (TSA) was obtained from Sigma-Aldrich (St. Louis, MO). […] HEPES pH 8.0 was obtained from Boston BioProducts (Ashland, MA), Tween-20 from Fisher Scientific (Hampton, NH)(catalog number BP337), TCEP from Calbiochem and 7.5% bovine serum albumin (BSA) from Life Technologies (Carlsbad, CA) (catalog number 15260037). 384-well, black assay plates were obtained from Corning (Corning, NY) (catalog number 3575).
The histone deacetylase activities of HDAC1, HDAC2, HDAC3, HDAC6, and HDAC8 were measured in modified Fluor-de-Lys assays in 384-well format. In this assay, HDAC enzymes are initially incubated with an ε-acetyl (or -trifluoroacetyl)-L-lysine-containing substrate with a C-terminal amide having aminomethylcoumarin as the amine component. HDACs cleave the ε-acetyl group, rendering the resulting product susceptible to AMC cleavage by trypsin. The released AMC is then detected by its fluorescence.
The HDAC 1, 2 assays employed buffer A, which contained 20 mM HEPES, pH 8.0, 1 mM MgCl2, 137 mM NaCl, 2.7 mM KCl, 0.05% BSA. The HDAC3/SMRT assay employed buffer B, consisting of 20 mM HEPES, pH 8.0, 1 mM MgCl2, 50 mM NaCl, 2.7 mM KCl, 0.05% BSA, 0.005% Tween 20, and 10 μM IP4. The HDAC6 assay employed buffer C, consisting of 20 mM HEPES, pH 8.0, 1 mM MgCl2, 137 mM NaCl, 2.7 mM KCl, 0.5 mM TCEP (Calbiochem) and 0.05% BSA. The HDAC8 assay employed buffer D, consisting of 20 mM HEPES, pH 8.0, 1 mM MgCl2, 100 mM NaCl, 20 mM KCl, 0.1% n-octyl-β-D-glucoside (Anatrace, Maumee, OH) and 0.05% BSA. All steps were performed at room temperature (23° C.). The assay was performed by pre-incubating serial dilutions of test compounds with the target HDAC prior to initiation with substrate. Each compound was titrated in a 10-point dose response, using a 1:3 fold dilution scheme, with 0.15 ul of solution added by ECHO555 to the plate, followed by the addition of 20 μl of the appropriate HDAC isoform diluted in appropriate assay buffer. […] Final conditions used for each assay were: 1. HDAC 1, 0.3 nM total enzyme, 20 μM substrate BML-K1104; 2. HDAC 2, 1.5 nM total enzyme, 40 μM substrate BML-K1104; 3. HDAC 3/SMRT, 0.3 nM total enzyme, 20 μM substrate BML-K1104; 4. HDAC 6, 1.3 nM total enzyme, 2.5 μM substrate BML-K1104; 5. HDAC 8, 1.3 nM total enzyme, 200 μM substrate BML-K1178; the final high dose of test compound was 30 μM. For potent compounds, 900 nM was used as the final high dose. The reactions were stopped and developed by addition of 30 ul of HDAC developer solution containing a saturating level of HDAC inhibitor as follows: 1.

In the case of `N[C@@H](COCCCC(=O)c1ccon1)c1ncc(-c2ccccc2F)[nH]1` [Compound 2, (R)-4-(2-amino-2-(5-(2-fluorophenyl)-1H-imidazol-2-yl)ethoxy)-1-(isoxazol-3-yl)butan-1-one], the IC50 was over 0.9 µM.

In the case of `CCC(=O)CCCOC[C@H](NC(=O)c1cncs1)c1ncc(-c2cc3ccccc3nc2OC)[nH]1` [Compound 5, N-{(1R)-1-[5-(2-methoxyquinolin-3-yl)-1H-imidazol-2-yl]-2-[(4-oxohexyl)oxy]ethyl}-1,3-thiazole-5-carboxamide], the IC50 was over 45 µM.

For `CCC(=O)CCCOC[C@H](NC(=O)C12CCN(CC1)CC2)c1ncc(-c2cc3ccccc3nc2OC)[nH]1` [Compound 6, N-{(1R)-1-[5-(2-methoxyquinolin-3-yl)-1H-imidazol-2-yl]-2-[(4-oxohexyl)oxy]ethyl}-1-azabicyclo[2.2.2]octane-4-carboxamide], the IC50 was over 45 µM.

Consider `CCC(=O)CCCOC[C@H](NC(=O)[C@H]1CC12CCN(CC)CC2)c1ncc(-c2cc3ccccc3nc2OC)[nH]1` [Compound 7, (1S)-6-ethyl-N-{(1R)-1-[5-(2-methoxyquinolin-3-yl)-1H-imidazol-2-yl]-2-[(4-oxohexyl)oxy]ethyl}-6-azaspiro[2.5]octane-1-carboxamide], for which the IC50 came to 19 µM.

Take `CNC(=O)C(=O)CCCOC[C@H](NC(=O)c1cncs1)c1ncc(-c2cc3ccccc3nc2OC)[nH]1` [Compound 8, N-[(1R)-1-[5-(2-methoxyquinolin-3-yl)-1H-imidazol-2-yl]-2-{[5-(methylamino)-4,5-dioxopentyl]oxy}ethyl]-1,3-thiazole-5-carboxamide]: the IC50 stood at 5.11 µM.

Regarding `CNC(=O)C(=O)CCCOC[C@H](NC(=O)C12CCN(CC1)CC2)c1ncc(-c2cc3ccccc3nc2OC)[nH]1` [Compound 9, N-[(1R)-1-[5-(2-methoxyquinolin-3-yl)-1H-imidazol-2-yl]-2-{[5-(methylamino)-4,5-dioxopentyl]oxy}ethyl]-1-azabicyclo[2.2.2]octane-4-carboxamide], the IC50 is over 45 µM.

With `COc1nc2ccccc2cc1-c1cnc([C@H](COCCCC(=O)c2ncco2)NC(=O)c2cncs2)[nH]1` [Compound 10, N-{(1R)-1-[5-(2-methoxyquinolin-3-yl)-1H-imidazol-2-yl]-2-[4-(1,3-oxazol-2-yl)-4-oxobutoxy]ethyl}-1,3-thiazole-5-carboxamide], the IC50 was over 45 µM.

On to `COc1nc2ccccc2cc1-c1cnc([C@H](COCCCC(=O)c2ncco2)NC(=O)[C@H]2CC23CCN(C)CC3)[nH]1` [Compound 11, (1S)-N-{(1R)-1-[5-(2-methoxyquinolin-3-yl)-1H-imidazol-2-yl]-2-[4-(1,3-oxazol-2-yl)-4-oxobutoxy]ethyl}-6-methyl-6-azaspiro[2.5]octane-1-carboxamide], for which the IC50 is over 45 µM.

Turning to `COc1nc2ccccc2cc1-c1cnc([C@H](COCCCC(=O)c2ncco2)NC(=O)C23CCN(CC2)CC3)[nH]1` [Compound 12, N-{(1R)-1-[5-(2-methoxyquinolin-3-yl)-1H-imidazol-2-yl]-2-[4-(1,3-oxazol-2-yl)-4-oxobutoxy]ethyl}-1-azabicyclo[2.2.2]octane-4-carboxamide], the IC50 was over 45 µM.

In the case of `COc1nc2ccccc2cc1-c1cnc([C@H](COCCCC(=O)c2ncco2)NC(=O)CN(C)C)[nH]1` [Compound 13, N-{(1R)-1-[5-(2-methoxyquinolin-3-yl)-1H-imidazol-2-yl]-2-[4-(1,3-oxazol-2-yl)-4-oxobutoxy]ethyl}-N~2~,N~2~- dimethylglycinamide], the IC50 is over 45 µM.

For the molecule `COc1nc2ccccc2cc1-c1cnc([C@H](COCCCC(=O)c2ccon2)NC(=O)CN(C)C)[nH]1` [Compound 14, N-{(1R)-2-(4-isoxazol-3-yl-4-oxobutoxy)-1-[5-(2-methoxyquinolin-3-yl)-1H-imidazol-2-yl]ethyl}-N~2~,N~2~- dimethylglycinamide], the IC50 was over 45 µM.

`CN1CC(C(=O)N[C@@H](COCCCC(=O)c2ccon2)c2ncc(-c3ccccc3F)[nH]2)C1` [Compound 15, N-[(1R)-1-[5-(2-fluorophenyl)-1H-imidazol-2-yl]-2-(4-isoxazol-3-yl-4-oxobutoxy)ethyl]-1-methylazetidine-3-carboxamide]: the IC50 is over 0.9 µM.

For the molecule `CN1CC(C(=O)N[C@@H](COCCCC(=O)c2ccon2)c2[nH]c(-c3ccc(F)cc3)nc2Cl)C1` [Compound 16, N-[(1R)-1-[4-chloro-2-(4-fluorophenyl)-1H-imidazol-5-yl]-2-(4-isoxazol-3-yl-4-oxobutoxy)ethyl]-1-methylazetidine-3-carboxamide], the IC50 was over 0.9 µM.

For the molecule `CN(C)CC(=O)N[C@@H](COCCCC(=O)c1ccon1)c1[nH]c(-c2ccc(F)cc2)nc1Cl` [Compound 17, N-[(1R)-1-[4-chloro-2-(4-fluorophenyl)-1H-imidazol-5-yl]-2-(4-isoxazol-3-yl-4-oxobutoxy)ethyl]-N~2~,N~2~- dimethylglycinamide], the IC50 is over 0.9 µM.

For the molecule `CN1CCC2(CC1)C[C@@H]2C(=O)N[C@@H](COCCCC(=O)c1ccon1)c1[nH]c(-c2ccc(F)cc2)nc1Cl` [Compound 18, (1S)-N-[(1R)-1-[4-chloro-2-(4-fluorophenyl)-1H-imidazol-5-yl]-2-(4-isoxazol-3-yl-4-oxobutoxy)ethyl]-6-methyl-6-azaspiro[2.5]octane-1-carboxamide], the IC50 is over 0.9 µM.

As to `COc1cc2nc(C)ccc2cc1-c1cnc([C@H](COCCCC(=O)c2cc(C)on2)NC(=O)C2CN(C)C2)[nH]1` [Compound 19, N-{(1R)-1-[5-(7-methoxy-2-methylquinolin-6-yl)-1H-imidazol-2-yl]-2-[4-(5-methylisoxazol-3-yl)-4-oxobutoxy]ethyl}-1-methylazetidine-3-carboxamide], the IC50 was 0.469 µM.

For the origin of these results see US12365674B2, “Inhibitors of histone deacetylase useful for the treatment or prevention of HIV infection” (Merck Sharp & Dohme LLC, priority 2019, dated 2025).
